From the NIST ThermoML archive (doi:10.1016/j.jct.2014.05.014)

Assay: cn = amount concentration of the nth substance listed, in mol/dm3
Details: 101.3 kPa, Liquid; for electrical conductivity: Alternating current cell with electrodes; for viscosity: Falling or rolling sphere viscometry; for mass density: Vibrating tube method

CC(N)C(=O)[O-].[K+] (stereo not drawn) [potassium DL-alaninate] + O
Details | electrical conductivity [S/m] | mass density [kg/m3] | viscosity [mPa·s]
303.15 K, c1 = 0.495 | – | 1024.1 | –
303.15 K, c1 = 0.514 | – | – | 0.942
303.15 K, c1 = 0.526 | 3.96 | – | –
303.15 K, c1 = 1.009 | 6.63 | – | –
303.15 K, c1 = 1.014 | – | 1051.7 | –
303.15 K, c1 = 1.029 | – | – | 1.118
303.15 K, c1 = 1.499 | 8.42 | – | –
303.15 K, c1 = 1.509 | – | 1078.7 | –
303.15 K, c1 = 1.524 | – | – | 1.342
303.15 K, c1 = 1.954 | – | 1103.2 | –
303.15 K, c1 = 1.999 | – | – | 1.6
303.15 K, c1 = 2.018 | 9.49 | – | –
303.15 K, c1 = 2.501 | 9.88 | – | –
303.15 K, c1 = 2.507 | – | 1131.4 | –
303.15 K, c1 = 2.522 | – | – | 1.964
303.15 K, c1 = 2.988 | – | 1155.8 | –
303.15 K, c1 = 3.046 | 9.87 | – | –
303.15 K, c1 = 3.048 | – | – | 2.422
303.15 K, c1 = 3.497 | 9.58 | – | –
303.15 K, c1 = 3.499 | – | 1181 | –
308.15 K, c1 = 0.495 | – | 1022.4 | –
308.15 K, c1 = 0.514 | – | – | 0.845
308.15 K, c1 = 0.526 | 4.34 | – | –
308.15 K, c1 = 1.009 | 7.25 | – | –
308.15 K, c1 = 1.014 | – | 1049.8 | –
308.15 K, c1 = 1.029 | – | – | 1.009
308.15 K, c1 = 1.499 | 9.18 | – | –
308.15 K, c1 = 1.509 | – | 1076.7 | –
308.15 K, c1 = 1.524 | – | – | 1.203
308.15 K, c1 = 1.954 | – | 1101.1 | –
308.15 K, c1 = 1.999 | – | – | 1.429
308.15 K, c1 = 2.018 | 10.4 | – | –
308.15 K, c1 = 2.501 | 10.8 | – | –
308.15 K, c1 = 2.507 | – | 1129.2 | –
308.15 K, c1 = 2.522 | – | – | 1.745
308.15 K, c1 = 2.988 | – | 1153.4 | –
308.15 K, c1 = 3.046 | 10.9 | – | –
308.15 K, c1 = 3.048 | – | – | 2.135
308.15 K, c1 = 3.497 | 10.6 | – | –
308.15 K, c1 = 3.499 | – | 1178.4 | –
313.15 K, c1 = 0.495 | – | 1020.5 | –
313.15 K, c1 = 0.514 | – | – | 0.769
313.15 K, c1 = 0.526 | 4.73 | – | –
313.15 K, c1 = 1.009 | 7.84 | – | –
313.15 K, c1 = 1.014 | – | 1047.7 | –
313.15 K, c1 = 1.029 | – | – | 0.909
313.15 K, c1 = 1.499 | 9.94 | – | –
313.15 K, c1 = 1.509 | – | 1074.5 | –
313.15 K, c1 = 1.524 | – | – | 1.093
313.15 K, c1 = 1.954 | – | 1098.8 | –
313.15 K, c1 = 1.999 | – | – | 1.29
313.15 K, c1 = 2.018 | 11.2 | – | –
313.15 K, c1 = 2.501 | 11.8 | – | –
313.15 K, c1 = 2.507 | – | 1126.8 | –
313.15 K, c1 = 2.522 | – | – | 1.569
313.15 K, c1 = 2.988 | – | 1150.9 | –
313.15 K, c1 = 3.046 | 11.8 | – | –
313.15 K, c1 = 3.048 | – | – | 1.907
313.15 K, c1 = 3.497 | 11.6 | – | –
313.15 K, c1 = 3.499 | – | 1175.8 | –
318.15 K, c1 = 0.495 | – | 1018.4 | –
318.15 K, c1 = 0.514 | – | – | 0.705
318.15 K, c1 = 0.526 | 5.12 | – | –
318.15 K, c1 = 1.009 | 8.45 | – | –
318.15 K, c1 = 1.014 | – | 1045.6 | –
318.15 K, c1 = 1.029 | – | – | 0.83
318.15 K, c1 = 1.499 | 10.7 | – | –
318.15 K, c1 = 1.509 | – | 1072.3 | –
318.15 K, c1 = 1.524 | – | – | 1
318.15 K, c1 = 1.954 | – | 1096.5 | –
318.15 K, c1 = 1.999 | – | – | 1.17
318.15 K, c1 = 2.018 | 12.1 | – | –
318.15 K, c1 = 2.501 | 12.7 | – | –
318.15 K, c1 = 2.507 | – | 1124.3 | –
318.15 K, c1 = 2.522 | – | – | 1.426
318.15 K, c1 = 2.988 | – | 1148.3 | –
318.15 K, c1 = 3.046 | 12.8 | – | –
318.15 K, c1 = 3.048 | – | – | 1.712
318.15 K, c1 = 3.497 | 12.6 | – | –
318.15 K, c1 = 3.499 | – | 1173.1 | –
323.15 K, c1 = 0.495 | – | 1016.2 | –
323.15 K, c1 = 0.514 | – | – | 0.644
323.15 K, c1 = 0.526 | 5.5 | – | –
323.15 K, c1 = 1.009 | 9.06 | – | –
323.15 K, c1 = 1.014 | – | 1043.4 | –
323.15 K, c1 = 1.029 | – | – | 0.76
323.15 K, c1 = 1.499 | 11.5 | – | –
323.15 K, c1 = 1.509 | – | 1069.9 | –
323.15 K, c1 = 1.524 | – | – | 0.922
323.15 K, c1 = 1.954 | – | 1094.2 | –
323.15 K, c1 = 1.999 | – | – | 1.069
323.15 K, c1 = 2.018 | 12.9 | – | –
323.15 K, c1 = 2.501 | 13.7 | – | –
323.15 K, c1 = 2.507 | – | 1121.8 | –
323.15 K, c1 = 2.522 | – | – | 1.301
323.15 K, c1 = 2.988 | – | 1145.7 | –
323.15 K, c1 = 3.046 | 13.9 | – | –
323.15 K, c1 = 3.048 | – | – | 1.549
323.15 K, c1 = 3.497 | 13.7 | – | –
323.15 K, c1 = 3.499 | – | 1170.3 | –
328.15 K, c1 = 0.495 | – | 1013.9 | –
328.15 K, c1 = 0.514 | – | – | 0.596
328.15 K, c1 = 0.526 | 5.89 | – | –
328.15 K, c1 = 1.009 | 9.68 | – | –
328.15 K, c1 = 1.014 | – | 1041 | –
328.15 K, c1 = 1.029 | – | – | 0.703
328.15 K, c1 = 1.499 | 12.2 | – | –
328.15 K, c1 = 1.509 | – | 1067.4 | –
328.15 K, c1 = 1.524 | – | – | 0.854
328.15 K, c1 = 1.954 | – | 1091.5 | –
328.15 K, c1 = 1.999 | – | – | 0.985
328.15 K, c1 = 2.018 | 13.8 | – | –
328.15 K, c1 = 2.501 | 14.6 | – | –
328.15 K, c1 = 2.507 | – | 1119 | –
328.15 K, c1 = 2.522 | – | – | 1.201
328.15 K, c1 = 2.988 | – | 1143 | –
328.15 K, c1 = 3.046 | 14.9 | – | –
328.15 K, c1 = 3.048 | – | – | 1.413
328.15 K, c1 = 3.497 | 14.7 | – | –
328.15 K, c1 = 3.499 | – | 1167.5 | –
333.15 K, c1 = 0.495 | – | 1011.5 | –
333.15 K, c1 = 0.514 | – | – | 0.547
333.15 K, c1 = 0.526 | 6.27 | – | –
333.15 K, c1 = 1.009 | 10.3 | – | –
333.15 K, c1 = 1.014 | – | 1038.5 | –
333.15 K, c1 = 1.029 | – | – | 0.649
333.15 K, c1 = 1.499 | 13 | – | –
333.15 K, c1 = 1.509 | – | 1064.9 | –
333.15 K, c1 = 1.524 | – | – | 0.799
333.15 K, c1 = 1.954 | – | 1088.8 | –
333.15 K, c1 = 1.999 | – | – | 0.902
333.15 K, c1 = 2.018 | 14.6 | – | –
333.15 K, c1 = 2.501 | 15.5 | – | –
333.15 K, c1 = 2.507 | – | 1116.3 | –
333.15 K, c1 = 2.522 | – | – | 1.104
333.15 K, c1 = 2.988 | – | 1140.2 | –
333.15 K, c1 = 3.046 | 15.8 | – | –
333.15 K, c1 = 3.048 | – | – | 1.286
333.15 K, c1 = 3.497 | 15.7 | – | –
333.15 K, c1 = 3.499 | – | 1164.6 | –
338.15 K, c1 = 0.495 | – | 1008.9 | –
338.15 K, c1 = 0.514 | – | – | 0.507
338.15 K, c1 = 0.526 | 6.64 | – | –
338.15 K, c1 = 1.009 | 10.8 | – | –
338.15 K, c1 = 1.014 | – | 1035.9 | –
338.15 K, c1 = 1.029 | – | – | 0.602
338.15 K, c1 = 1.499 | 13.8 | – | –
338.15 K, c1 = 1.509 | – | 1062.1 | –
338.15 K, c1 = 1.524 | – | – | 0.742
338.15 K, c1 = 1.954 | – | 1086.1 | –
338.15 K, c1 = 1.999 | – | – | 0.83
338.15 K, c1 = 2.018 | 15.5 | – | –
338.15 K, c1 = 2.501 | 16.4 | – | –
338.15 K, c1 = 2.507 | – | 1113.5 | –
338.15 K, c1 = 2.522 | – | – | 1.015
338.15 K, c1 = 2.988 | – | 1137.3 | –
338.15 K, c1 = 3.046 | 16.8 | – | –
338.15 K, c1 = 3.048 | – | – | 1.176
338.15 K, c1 = 3.497 | 16.7 | – | –
338.15 K, c1 = 3.499 | – | 1161.6 | –
343.15 K, c1 = 0.495 | – | 1006.3 | –
343.15 K, c1 = 0.514 | – | – | 0.475
343.15 K, c1 = 0.526 | 7.02 | – | –
343.15 K, c1 = 1.009 | 11.4 | – | –
343.15 K, c1 = 1.014 | – | 1033.1 | –
343.15 K, c1 = 1.029 | – | – | 0.563
343.15 K, c1 = 1.499 | 14.5 | – | –
343.15 K, c1 = 1.509 | – | 1059.4 | –
343.15 K, c1 = 1.524 | – | – | 0.693
343.15 K, c1 = 1.954 | – | 1083.4 | –
343.15 K, c1 = 1.999 | – | – | 0.77
343.15 K, c1 = 2.018 | 16.3 | – | –
343.15 K, c1 = 2.501 | 17.4 | – | –
343.15 K, c1 = 2.507 | – | 1110.5 | –
343.15 K, c1 = 2.522 | – | – | 0.94
343.15 K, c1 = 2.988 | – | 1134.4 | –
343.15 K, c1 = 3.046 | 17.8 | – | –
343.15 K, c1 = 3.048 | – | – | 1.087
343.15 K, c1 = 3.497 | 17.7 | – | –
343.15 K, c1 = 3.499 | – | 1158.6 | –
